In US8754079B2, “Cycloalkyl containing thienopyrimidines for pharmaceutical compositions” (Boehringer Ingelheim International GmbH, priority 2010, dated 2014) one finds IC50 data, which are given here for 38 molecules.

Molecules are shown by their SMILES.

This assay concerns the target T1, MNK2 (Homo sapiens, UniProt Q9HBH9).
T1 construct: the open reading frames of human Mnk1 and Mnk2a were amplified from cDNA; made in house; host or cells: E. coli BL21
Briefly: Mnk2a in vitro kinase assay (indirect fluorescence polarization). The class given is biochemical. The note with it: pre-activated GST-Mnk2a 2.5 nM, 20 μM ATP, 30 μM substrate peptide. How it is done:
Inhibitory potency of compounds against Mnk1, Mnk2a and other kinases was assessed with assays based on a format known to those skilled in the art as the indirect (competitive) fluorescence polarization. The assay detection system comprises a small fluorophore-labeled phospho-peptide (termed ligand) bound to a phospho-specific antibody. The product generated by the kinase reaction competes with the ligand for antibody binding. Based on the larger molecular volume of the bound ligand, which results in a lower rotation rate in solution, its emitted light has a higher degree of polarization than the one from the free ligand.
Example 2a. Mnk1 and Mnk2a in vitro kinase assay
As a source of enzyme, human Mnk1 and human Mnk2a were expressed as GST fusion proteins in E. coli, purified to >80% homogeneity by glutathione affinity chromatography and activated in vitro with pre-activated ERK2. In brief, the open reading frames of human Mnk1 and Mnk2a were amplified from cDNA using the forward/reverse primer pairs
(utilized restriction sites underlined), respectively, and cloned into the BamHI and SalI sites of the vector pGEX-4T1 (Amersham, Sweden, cat. no. 27-4580-01). These constructs allow prokaryotic expression of Mnk1 or Mnk2a as fusion protein with a N-terminal glutathione S-transferase (GST) tag, referred to as GST-Mnk1 or GSTMnk2a. The following expression and purification procedure was identical for GSTMnk1 and GST-Mnk2a, referring in general to GST-Mnk, when not distinguishing between the two isoforms. Expression of GST-Mnk was in E. coli BL21 (Merck Biosciences, Germany, cat. no. 69449). Cells were grown in LB-Bouillon (Merck, Germany, cat. no. 1.10285) supplemented with 100 μg/ml ampicillin (Sigma, Germany, cat. no. A9518) at 37° C. When the culture had reached a density corresponding to an A600 of 0.8, an equal volume of ice cold LB/ampicillin was added, the culture transferred to 25° C. and induced for 4 h with 1 mM isopropyl thiogalactoside (IPTG, Roth, Germany, cat. no. 2316.4). Cells harvested by centrifugation were resuspended in 10 ml lysis buffer (50 mM tris(hydroxymethyl)aminomethane hydrochloride (Tris/HCl, Sigma, Germany, cat. no. T5941) pH 7.5, 300 mM sodium chloride (NaCl, Sigma, Germany, cat. no. S7653), 5% (w/v) glycerol (Sigma, Germany, cat. no. G5516), 3 mM DTT dithiotreitol (DTT, Sigma, Germany, cat. no. D9779)) per gram wet weight cell pellet. Lysates were prepared by disruption of cells with a sonifier and subsequent clearing by centrifugation at 38000 g for 45 min at 4° C.
The lysate was applied to a GSTPrep FF 16/10 column (Amersham, Sweden, cat. no. 17-5234-01) equilibrated with lysis buffer. Removal of unbound material was with 3 column volumes (CV) lysis buffer. Elution was with 2 CV of elution buffer (50 mM Tris/HCl pH 7.5, 300 mM NaCl, 5% (w/v) glycerol, 20 mM glutathione (Sigma, Germany, cat. no. G4251)). Peak fractions were pooled and the protein transferred into storage buffer (50 mM Tris/HCl pH 7.5, 200 mM NaCl, 0.1 mM ethylene glycolbis(2-aminoethylether)-N,N,N′,N′-tetraacetic acid (EGTA, Aldrich, Germany, cat. no. 23, 453-2), 1 mM DTT, 10% (w/v) glycerol, 0.5 M sucrose (Sigma, Germany, cat. no. S0389) by gel filtration on a PD10 desalting column (Amersham, Sweden, cat. no. 17-0851-01). Aliquots were shock frozen in liquid nitrogen and stored at −80° C.
Activation of Mnk1 and Mnk2a was at a concentration of 2.5 μM of either purified GST-Mnk1 or GST-Mnk2a by incubation with 150 nM pre-activated NHis-ERK2 (see ERK2 assay for preparation) and 50 μM adenosine triphosphate (ATP, Sigma, cat. no. A2699) in a buffer comprising 20 mM N-(2-hydroxyethyl)piperazine-N′-(2-ethanesulfonic acid) (HEPES, Fluka, Germany, cat. no 54459)/potassium hydroxide (KOH, Roth, Germany, cat. no 6751.1) pH 7.4, 10 mM magnesium chloride (MgCl2, Sigma, Germany, cat. no. M2670), 0.25 mM DTT, 0.05% (w/v) polyoxyethylene 20 stearylether (Brij 78, Sigma, Germany, cat. no. P4019) (HMDB buffer) for 45 min at 30° C. […]
In general terms: Polarisation of emitted light reports the rotation of a fluorescent probe.

T1 sequence (Q9HBH9 whole entry): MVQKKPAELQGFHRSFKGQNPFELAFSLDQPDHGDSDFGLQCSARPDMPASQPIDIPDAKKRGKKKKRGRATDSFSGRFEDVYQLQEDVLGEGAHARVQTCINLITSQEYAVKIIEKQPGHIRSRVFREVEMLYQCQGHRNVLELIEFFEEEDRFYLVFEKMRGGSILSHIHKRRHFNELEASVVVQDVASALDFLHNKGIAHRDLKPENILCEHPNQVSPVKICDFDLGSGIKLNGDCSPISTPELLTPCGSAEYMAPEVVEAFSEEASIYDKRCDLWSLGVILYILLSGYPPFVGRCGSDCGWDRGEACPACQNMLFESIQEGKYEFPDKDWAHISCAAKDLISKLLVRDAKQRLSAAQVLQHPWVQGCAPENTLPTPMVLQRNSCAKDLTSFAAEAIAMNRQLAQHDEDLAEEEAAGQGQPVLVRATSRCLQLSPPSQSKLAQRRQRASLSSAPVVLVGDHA

In general, IC50 refers to the concentration that inhibits the measured activity by half. Higher therefore signals a need for much substance. As to `CO[C@@H]1CCC[C@@H](Oc2cc(F)ccc2Nc2ncnc3sc(C(=O)NCc4cnco4)c(C)c23)C1` (racemic) [Example 82], the IC50 was 44 nM.
As for `CO[C@@H]1CCC[C@@H](Oc2cc(F)ccc2Nc2ncnc3sc(C(=O)NCCCN(C)C)c(C)c23)C1` (racemic) [Example 88], the figure is 61 nM; as for `CO[C@H]1CCC[C@@H](Oc2cc(F)ccc2Nc2ncnc3sc(C(N)=O)c(C)c23)C1` (racemic) [Example 89, Racemic 4-[4-Fluoro-2-((cis)-3-methoxy-cyclohexyloxy)-phenylamino]-5-methyl-thieno[2,3-d]pyrimidine-6-carboxylic acid amide], 8 nM.
As for `CO[C@H]1CCC[C@@H](Oc2cc(F)ccc2Nc2ncnc3sc(C(=O)NCC#CCN)c(C)c23)C1` (racemic) [Example 91], the figure is 16 nM; as for `CO[C@H]1CCC[C@@H](Oc2cc(F)ccc2Nc2ncnc3sc(C(=O)NCCCCO)c(C)c23)C1` (racemic) [Example 92], 36 nM; as for `CO[C@H]1CCC[C@@H](Oc2cc(F)ccc2Nc2ncnc3sc(C(=O)NCc4cnco4)c(C)c23)C1` (racemic) [Example 93], 16 nM.
In turn, `CNC(=O)CNC(=O)c1sc2ncnc(Nc3ccc(F)cc3O[C@@H]3CCC[C@H](OC)C3)c2c1C` (racemic) [Example 95] registered an IC50 of 28 nM. Compared with the last molecule, the IC50 is about 1.8-fold higher.
Next, `CO[C@H]1CCC[C@@H](Oc2cc(F)ccc2Nc2ncnc3sc(C(=O)NCCCN4CCOCC4)c(C)c23)C1` (racemic) [Example 97]: 24 nM; `CO[C@H]1CCC[C@@H](Oc2cc(F)ccc2Nc2ncnc3sc(C(=O)N[C@H]4CC[C@H](O)CC4)c(C)c23)C1` (racemic) [Example 100]: 34 nM; `CO[C@H]1CCC[C@@H](Oc2cc(F)ccc2Nc2ncnc3sc(C(=O)NCCO)c(C)c23)C1` (racemic) [Example 101]: 21 nM.
`CO[C@H]1CCC[C@@H](Oc2cc(F)ccc2Nc2ncnc3sc(C(=O)NCCN4CCCCC4)c(C)c23)C1` (racemic) [Example 103] registered an IC50 of 50 nM.
As for `CO[C@H]1CCC[C@@H](Oc2cc(F)ccc2Nc2ncnc3sc(C(=O)NCCCO)c(C)c23)C1` (racemic) [Example 105], the figure is 24 nM; as for `CO[C@H]1CCC[C@@H](Oc2cc(F)ccc2Nc2ncnc3sc(C(=O)NCCCN4CCCC4)c(C)c23)C1` (racemic) [Example 106], 22 nM; as for `CCNC(=O)c1sc2ncnc(Nc3ccc(F)cc3O[C@@H]3CCC[C@H](OC)C3)c2c1C` (racemic) [Example 109], 24 nM.
On to `COC(=O)c1sc2ncnc(Nc3cccnc3O[C@@H]3CCC[C@H](OC)C3)c2c1C` (racemic) [Example 110.1, Racemic 4-[2-((cis)-3-Methoxy-cyclohexyloxy)-pyridin-3-ylamino]-5-methyl-thieno[2,3-d]pyrimidine-6-carboxylic acid methylester], for which the IC50 is 9 nM. Against the preceding molecule, the IC50 is about 2.7-fold lower.
As to `CO[C@H]1CCC[C@@H](Oc2ncccc2Nc2ncnc3sc(C(=O)NCC#CCN)c(C)c23)C1` (racemic) [Example 112], the 50% inhibitory concentration (IC50) is 13 nM.
Consider `CO[C@H]1CCC[C@@H](Oc2ncccc2Nc2ncnc3sc(C(=O)NCCCCO)c(C)c23)C1` (racemic) [Example 113], for which the half-maximal inhibitory concentration (IC50) is 23 nM.
As for `CO[C@H]1CCC[C@@H](Oc2ncccc2Nc2ncnc3sc(C(=O)NCc4cnco4)c(C)c23)C1` (racemic) [Example 114], the figure is 19 nM; as for `CNC(=O)CNC(=O)c1sc2ncnc(Nc3cccnc3O[C@@H]3CCC[C@H](OC)C3)c2c1C` (racemic) [Example 116], 33 nM; as for `CO[C@H]1CCC[C@@H](Oc2ncccc2Nc2ncnc3sc(C(=O)NCCCN4CCOCC4)c(C)c23)C1` (racemic) [Example 118], 22 nM.
As for `CO[C@H]1CCC[C@@H](Oc2ncccc2Nc2ncnc3sc(C(=O)N[C@H]4CC[C@H](O)CC4)c(C)c23)C1` (racemic) [Example 121], the figure is 41 nM.
As for `CO[C@H]1CCC[C@@H](Oc2ncccc2Nc2ncnc3sc(C(=O)NCCO)c(C)c23)C1` (racemic) [Example 122], the IC50 was 18 nM.
`CO[C@H]1CCC[C@@H](Oc2ncccc2Nc2ncnc3sc(C(=O)NCCN4CCCCC4)c(C)c23)C1` (racemic) [Example 124] returned an IC50 of 36 nM. Against the preceding molecule, the IC50 is about 2-fold higher.
As for `CO[C@H]1CCC[C@@H](Oc2ncccc2Nc2ncnc3sc(C(=O)NCCCN4CCCC4)c(C)c23)C1` (racemic) [Example 127], the figure is 16 nM; as for `CO[C@H]1CCC[C@@H](Oc2ncccc2Nc2ncnc3sc(C(=O)NCc4cn(C)cn4)c(C)c23)C1` (racemic) [Example 128], 19 nM.
The molecule `CCNC(=O)c1sc2ncnc(Nc3cccnc3O[C@@H]3CCC[C@H](OC)C3)c2c1C` (racemic) [Example 130] gave an IC50 of 24 nM. This IC50 and that of the molecule before are within 1.5-fold of each other.
Regarding `CO[C@@H]1CCC[C@@H](Oc2ncccc2Nc2ncnc3sc(C(N)=O)c(C)c23)C1` (racemic) [Example 131, Racemic 4-[2-((trans)-3-Methoxy-cyclohexyloxy)-pyridin-3-ylamino]-5-methyl-thieno[2,3-d]pyrimidine-6-carboxylic acid amide], inhibition was half-maximal at 18 nM (IC50).
Regarding `CO[C@@H]1CCC[C@@H](Oc2ncccc2Nc2ncnc3sc(C(=O)NCC#CCN)c(C)c23)C1` (racemic) [Example 133], the 50% inhibitory concentration (IC50) came out at 53 nM.
`CO[C@@H]1CCC[C@@H](Oc2ncccc2Nc2ncnc3sc(C(=O)NCCCCO)c(C)c23)C1` (racemic) [Example 134] came in with an IC50 of 86 nM.
Consider `CO[C@@H]1CCC[C@@H](Oc2ncccc2Nc2ncnc3sc(C(=O)NCc4cnco4)c(C)c23)C1` (racemic) [Example 135], for which it took 65 nM to reach half-maximal inhibition (IC50). This IC50 and that of the molecule before are within 1.5-fold of each other.
In the case of `CO[C@@H]1CCC[C@@H](Oc2ncccc2Nc2ncnc3sc(C(=O)NCC#N)c(C)c23)C1` (racemic) [Example 136], 44 nM corresponded to half-maximal inhibition (IC50).
Consider `CNC(=O)CNC(=O)c1sc2ncnc(Nc3cccnc3O[C@@H]3CCC[C@@H](OC)C3)c2c1C` (racemic) [Example 137], for which the IC50 came out at 105 nM.
With `CO[C@@H]1CCC[C@@H](Oc2ncccc2Nc2ncnc3sc(C(=O)NCC#CCN(C)C)c(C)c23)C1` (racemic) [Example 138], the IC50 was determined as 48 nM.
As for `CO[C@@H]1CCC[C@@H](Oc2ncccc2Nc2ncnc3sc(C(=O)NCCCN4CCOCC4)c(C)c23)C1` (racemic) [Example 139], the midpoint of inhibition, the IC50, lay at 84 nM.
As to `CO[C@@H]1CCC[C@@H](Oc2ncccc2Nc2ncnc3sc(C(=O)N[C@H]4CC[C@H](O)CC4)c(C)c23)C1` (racemic) [Example 142], inhibition was half-maximal at 125 nM (IC50). The IC50 values of the last two molecules are within 1.5-fold of each other.
For `CO[C@@H]1CCC[C@@H](Oc2ncccc2Nc2ncnc3sc(C(=O)NC4CCN(C)CC4)c(C)c23)C1` (racemic) [Example 144], the IC50 came out at 89 nM.
As for `CO[C@@H]1CCC[C@@H](Oc2ncccc2Nc2ncnc3sc(C(=O)NCCN4CCCCC4)c(C)c23)C1` (racemic) [Example 145], the IC50 was found to be 68 nM.
As to `CO[C@@H]1CCC[C@@H](Oc2ncccc2Nc2ncnc3sc(C(=O)NCCCO)c(C)c23)C1` (racemic) [Example 147], the half-maximal inhibitory concentration (IC50) came to 83 nM.
